# Laboratory results: patent US11607417B2, “Uses of celastrol in preventing and/or treating cholestatic liver disease and liver fibrosis” (KUNMING INSTITUTE OF BOTANY, THE CHINESE ACADEMY OF SCIENCES, priority 2017, dated 2023)
# “And” between values parts separate entries of the source, which are not always exact repeats. Identical values can stand only once.
# How the values were obtained:
# [1] = tested on: TAA-induced liver fibrosis; experiment: TAA-induced liver fibrosis in mice (Example 7); assay type: in vivo, C57BL/6 mice; settings: three times per week from second week, TAA 6 weeks
# Method: A total of 30 male C57BL/6 mice were divided into three groups: blank group (n=10); TAA liver fibrosis group (n=10); treatment group (n=10).
# Celastrol was dissolved in a solvent to obtain a celastrol solution at a concentration of 2 mg/mL, wherein the solvent consisted of 1% DMSO, 2% Tween 80, and 97% water (v:v:v); for intragastrical administration, the dosage of celastrol was 10 mg/kg/time, three times per week, and the administration was absent in the first week. TAA was dissolved in 0.9% NaCl solution to prepare a NaCl solution of TAA at a concentration of […], and the dosage for intraperitoneal administration was 100 mg/kg/time in the first week and 160 mg/kg/time in the second to sixth week, three times per week.
# The model group and the treatment group were administrated with TAA three times per week, and administered every other day. The dosage of TAA was 100 mg/kg each time during the first week. From the second week onwards, the dosage of TAA administered to the model group and the treatment group was changed to 160 mg/kg each time. The blank group was given an equal dosage of NaCl solution.
# The treatment group was administrated with celastrol from the second week, in which celastrol at a dosage of 10 mg/kg was administered 1 hour after administration with TAA. The blank group and the model group were administrated with an equal dosage of solvent (1% DMSO, 2% Tween 80, and 97% water (v: v: v)).
# Six weeks later, mice were sacrificed by CO2 anesthesia, and mouse plasma samples and liver samples were collected. The eyeballs of the mice were taken for blood collection. The plasma samples were placed on ice for 1-2 hours, centrifuged at 4000 g for 5 minutes at 4° C., and the supernatants of plasma samples were taken to determine the plasma biochemical indicators, the levels of ALT, AST, and ALP.
# Part of the collected mouse liver tissue was fixed overnight in formalin, and tissue sections were stained with hematoxylin and eosin (H&E).
# [2] = tested on: ANIT-induced cholestatic liver injury; experiment: ANIT-induced mouse cholestatic liver injury (Example 1); assay type: in vivo, C57BL/6 mice
# Method: A total of 18 male C57BL/6 mice were divided into three groups: blank group (n=6); model group (n=6); treatment group (n=6).
# Celastrol was dissolved in a solvent to obtain a celastrol solution at a concentration of 2 mg/mL, wherein the solvent consisted of 1% DMSO, 2% Tween 80, and 97% water (v:v:v). For intragastrical administration, the dosage of celastrol was 10 mg/kg·d. ANIT was dissolved in corn oil to obtain a corn oil solution of ANIT at a concentration of 15 mg/mL, and the dosage of ANIT for intragastrical administration was 75 mg/kg.
# The treatment group was intragastrically administered with the celastrol solution at a dosage of 10 mg/kg·d for five consecutive days. At the same time, the blank group and the model group were intragastrically administered with the same dosage of a solvent, wherein the solvent consisted of 1% DMSO, 2% Tween 80 and 97% water (v:v:v), and the solvent was administrated for five consecutive days.
# On the third day of administration, ANIT model was established. 4 Hours after administration with the solvent or celastrol solution, the model group and the treatment group were respectively intragastrically administered with the ANIT corn oil solution to induce cholestatic liver injury at a dosage of 75 mg/kg for single administration, and the blank group was fed with an equal dosage of corn oil. After the model was established, the treatment group was continuously administrated with the celastrol solution, and the blank group and the model group was continuously administrated with the same dosage of solvent.
# 48 Hours after the model was established, the mice were sacrificed by CO2 anesthesia, and mouse livers and plasma samples were taken. The eyeballs of the mice were taken for blood collection. The plasma samples were placed on ice for 1-2 hours, centrifuged at 4000 g for 5 minutes at 4° C., and the supernatant was taken to determine the plasma biochemical indicators, the levels of ALT, AST and ALP.
# At the same time, plasma samples were prepared: 10 μL of plasma sample was taken, mixed with 190 μL of 67% (v/v) acetonitrile (containing 5 μM internal standard chlorpropamide), centrifuged at 18000 g for 20 minutes at 4° C., and the supernatant was taken for sample injection.
# Liver samples were prepared: 100 mg of liver samples were mixed well with 1 mL of 50% (v/v) acetonitrile (containing 5 μM internal standard chlorpropamide), shaken for 20 minutes at room temperature, and then centrifuged at 18000 g for 20 minutes at 4° C. Thereafter, 200 μL of the supernatant was taken and added with 200 μL of pure acetonitrile, vortexed for 1 minute, centrifuged at 18000 g for 20 minutes at 4° C., and the supernatant was taken for sample injection.
# The liquid chromatography conditions were as follows: the injection volume was 5 μL; the column temperature was 45° C.; the flow rate of mobile phase was 0.3 mL/min; the gradient elution was that acetonitrile concentration changed from 2% to 98% during 16 minutes of operation, wherein the mobile phase (water/acetonitrile solution) contained 0.01% formic acid. The elution procedure was as follows: during 0-12th minute, the acetonitrile concentration changed from 2% to 98% at a constant rate; during 12-14th minute, the acetonitrile concentration was maintained at 98%; during 14-14.1th minute, the acetonitrile concentration changed from 98% to 2%; during 14.1-16th minute, the acetonitrile concentration was maintained at 2%. Mass spectrometry conditions were as follows: the temperature of dry gas was 350° C., the pressure of nebulizer was 35 psi, and the voltage of capillary was 3.5 kV.
# Part of the collected mouse liver tissue was fixed overnight in formalin and tissue sections were stained with hematoxylin and eosin (H&E).
# [3] = celastrol 10 mg/kg/time, P<0.05, FIG. 7D
# [4] = celastrol 10 mg/kg·d intragastric 5 days, ANIT 75 mg/kg on day 3, 48 h after ANIT, n=6
# [5] = celastrol 10 mg/kg·d intragastric 5 days, ANIT 75 mg/kg, 48 h after ANIT, n=6
compound,measurement,setting,value
"CC1=C(O)C(=O)C=C2C1=CC=C1[C@@]2(C)CC[C@@]2(C)[C@@H]3C[C@](C)(C(=O)O)CC[C@]3(C)CC[C@]12C [celastrol, Celastrol]",H&E staining: liver tissue damage and liver morphology,"[1]; celastrol 10 mg/kg/time intragastric, n=10, FIG. 7C",reduced and the liver morphology was also significantly recovered
same,ALT level in plasma vs model group,[1]; [3],significantly lower
same,AST level in plasma vs model group,[1]; [3],significantly lower
same,Levels of bile acids in plasma vs ANIT model group,"[2]; CA, DCA, TβMCA/TαMCA, TCA, THDCA/TUDCA, celastrol 10 mg/kg·d, FIG. 1D",significantly lower
same,Liver weight of mouse when sacrificed,[2]; [4],1.01 g and 1.01 ± 0.05 g
same,Liver weight/body weight,[2]; [4],4.66% and 4.66 ± 0.23 %
same,ALP in mouse plasma,[2]; [5],27.3 ± 3.7 U/l
same,ALT in mouse plasma,[2]; [5],54.0 ± 36.4 U/l
same,AST in mouse plasma,[2]; [5],72.0 ± 34.4 U/l
same,H&E staining of mouse liver tissue,"[2]; celastrol 10 mg/kg·d intragastric, ANIT model, FIG. 1C",no obvious damage
same,Levels of bile acids in liver vs ANIT model group,"[2]; ω-MCA, β-MCA, CA, DCA, TβMCA/TαMCA, TCA, GCA, TLCA, celastrol 10 mg/kg·d, FIG. 1E",significantly lower
